Results on two substances are retold here after US7282354B2, “Method for producing fermented milk product” (Calpis Co., Ltd., priority 2000, dated 2007).

The target in experiment [1] is ACE (Homo sapiens, UniProt P12821). The experiment can be described thus: ACE inhibitory activity of IPP per unit weight relative to VPP. It is filed as biochemical.
The subject of experiment [2] is spontaneously hypertensive rat (SHR). To be noted: J. Dairy Sci. 78:1253-1257(1995); cited from earlier work.

Chain of ACE (P12821 30-1306, species assumed): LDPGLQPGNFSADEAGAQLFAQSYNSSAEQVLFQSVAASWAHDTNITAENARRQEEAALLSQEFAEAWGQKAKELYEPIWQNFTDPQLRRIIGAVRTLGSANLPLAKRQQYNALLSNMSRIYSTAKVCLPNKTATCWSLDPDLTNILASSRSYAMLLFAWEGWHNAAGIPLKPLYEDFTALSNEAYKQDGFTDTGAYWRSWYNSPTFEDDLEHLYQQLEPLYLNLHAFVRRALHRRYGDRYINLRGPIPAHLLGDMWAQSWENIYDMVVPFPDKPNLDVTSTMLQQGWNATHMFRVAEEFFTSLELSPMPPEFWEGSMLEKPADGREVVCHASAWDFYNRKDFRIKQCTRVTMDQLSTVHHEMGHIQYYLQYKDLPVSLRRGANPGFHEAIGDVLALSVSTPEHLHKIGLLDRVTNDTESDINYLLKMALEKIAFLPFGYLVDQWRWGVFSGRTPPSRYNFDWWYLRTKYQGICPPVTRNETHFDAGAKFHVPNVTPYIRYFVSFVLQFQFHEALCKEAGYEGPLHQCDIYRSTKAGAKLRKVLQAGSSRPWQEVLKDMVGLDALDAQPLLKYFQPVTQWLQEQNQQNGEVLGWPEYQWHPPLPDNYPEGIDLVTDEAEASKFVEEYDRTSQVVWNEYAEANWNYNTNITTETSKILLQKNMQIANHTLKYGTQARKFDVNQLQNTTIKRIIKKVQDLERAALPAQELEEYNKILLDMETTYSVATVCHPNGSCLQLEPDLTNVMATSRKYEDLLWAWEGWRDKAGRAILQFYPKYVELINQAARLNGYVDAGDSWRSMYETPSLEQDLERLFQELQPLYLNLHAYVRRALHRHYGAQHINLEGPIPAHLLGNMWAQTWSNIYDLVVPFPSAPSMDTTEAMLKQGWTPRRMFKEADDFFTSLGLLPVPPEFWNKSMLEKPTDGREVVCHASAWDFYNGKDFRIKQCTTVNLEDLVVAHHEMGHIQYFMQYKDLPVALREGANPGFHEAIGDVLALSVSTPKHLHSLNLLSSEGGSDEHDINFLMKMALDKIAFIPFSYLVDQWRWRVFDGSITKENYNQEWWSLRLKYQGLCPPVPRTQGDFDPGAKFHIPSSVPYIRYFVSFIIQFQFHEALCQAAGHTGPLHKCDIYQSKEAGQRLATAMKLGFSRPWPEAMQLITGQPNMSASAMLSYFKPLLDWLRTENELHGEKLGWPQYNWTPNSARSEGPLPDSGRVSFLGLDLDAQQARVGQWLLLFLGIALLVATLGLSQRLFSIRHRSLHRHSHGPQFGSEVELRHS

Take Ile-Pro-Pro [IPP]: in experiment [1], the “ACE inhibitory activity per unit weight relative to VPP” value was 1.7 times that of VPP. Further, the Hypotensive effect result in experiment [2] is “strong hypotensive effect”.

For the substance Val-Pro-Pro [VPP], in experiment [2], the Hypotensive effect entry is “strong hypotensive effect”.
